From PubChem BioAssay (NCI)
Where “and” joins values, the source holds several entries; their conditions need not be identical. Equal entries are not always repeated.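 Protocol summary: plate cells (96-well), add compound at 5 concentrations, incubate 48 h, interpolate endpoints linearly. GI50 = concentration required for 50% inhibition of growth. TGI is the concentration that stops growth completely.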

Legend:
Test in all cases: growth of human tumour cells (NCI), 48 h
ACHN renal = system: ACHN renal
HS 578T breast = system: HS 578T breast
SNB-75 CNS = system: SNB-75 CNS
CAKI-1 renal = system: CAKI-1 renal
COLO 205 colon = system: COLO 205 colon
NCI-H23 lung = system: NCI-H23 lung
TK-10 renal = system: TK-10 renal
SR leukemia = system: SR leukemia
BT-549 breast = system: BT-549 breast

Row | Structure (SMILES) | TGI (ACHN renal) | TGI (HS 578T breast) | TGI (SNB-75 CNS) | TGI (CAKI-1 renal) | TGI (COLO 205 colon) | TGI (NCI-H23 lung) | TGI (TK-10 renal) | TGI (SR leukemia) | TGI (BT-549 breast) | GI50 (ACHN renal) | GI50 (SNB-75 CNS) | GI50 (CAKI-1 renal) | GI50 (COLO 205 colon) | GI50 (NCI-H23 lung) | GI50 (TK-10 renal) | GI50 (HS 578T breast) | GI50 (BT-549 breast)
1 | CN(Cc1cnc2nc(N)nc(N)c2n1)c1ccc(C(=O)NC(CCC(=O)O)C(=O)O)cc1C(F)(F)F (centres undefined) | > 100 µM | > 100 µM | > 100 µM | > 100 µM | > 100 µM | > 100 µM | > 100 µM | 1.24 µM | – | – | – | – | – | – | – | – | –
2 | CCOc1ccccc1NC(=O)CC1C(=O)Nc2ccccc2S1=O (centres undefined) | > 100 µM | – | > 100 µM | > 100 µM | – | > 100 µM | > 100 µM | > 100 µM | – | – | – | – | – | – | – | – | –
3 | CC1CC(C2=CC=CCS2)=Nc2ccccc2S1 (centres undefined) | > 100 µM | – | 78.6 µM | > 100 µM | > 100 µM | > 100 µM | > 100 µM | – | – | – | – | – | – | – | – | – | –
4 | CN1N=CSC12C(=O)N(c1ccc(Cl)cc1)C(=O)N2c1ccc(Cl)cc1 (centres undefined) | – | – | 16.5 µM | > 100 µM | 3.38 µM | 5.14 µM | 81.1 µM | > 100 µM | – | – | – | – | – | – | – | – | –
5 | CC[C@]1(O)CC(OC2CC(N(C)C)C(O)C(C)O2)c2c(cc3c(c2O)C(=O)c2c(O)cccc2C3=O)[C@@H]1C(=O)OC (some centres undefined) | 0.963 µM | 4.21 µM | 1.42 µM | 0.377 µM | 3.79 µM | 2.47 µM | 5.07 µM | – | 4.97 µM | – | – | – | – | – | – | – | –
6 | COc1cc(C2c3[nH]c4ccccc4c3C[C@H]3COC(=O)N23)cc(OC)c1OC (some centres undefined) | > 100 µM | 0.0814 µM | > 100 µM | > 100 µM | 0.287 µM and 0.0434 µM | – | > 100 µM | – | – | < 0.01 µM | < 0.01 µM | < 0.01 µM | < 0.01 µM | < 0.01 µM | < 0.01 µM | – | –
7 | COc1ccccc1/C=C(\C#N)c1ccccc1 | > 100 µM | – | 60 µM | > 100 µM | 32.4 µM | > 100 µM | 95.6 µM | 48.8 µM | – | – | – | – | – | – | – | – | –
8 | O=C(Nc1ccccc1-c1n[nH]c(=S)[nH]c1=O)C(F)(F)F | > 100 µM | – | > 100 µM | > 100 µM | > 100 µM | > 100 µM | > 100 µM | > 100 µM | – | – | – | – | – | – | – | – | –
9 | N#Cc1ccccc1NC(=O)/C(=N\N)C(C(=O)c1ccncc1)C1OC(=O)c2ccccc21 (centres undefined) | > 100 µM | – | – | – | > 100 µM | > 100 µM | > 100 µM | > 100 µM | – | – | – | – | – | – | – | – | –
10 | Cc1cccc(NC(=O)CCc2ccc(N3C(N)=NC(N)=NC3(C)C)cc2)c1 | > 100 µM | > 100 µM | > 100 µM | > 100 µM | > 100 µM | > 100 µM | > 100 µM | – | > 100 µM | > 100 µM | – | 97.3 µM | 7.8 µM | 6.32 µM | 18.2 µM | > 52 µM | 10.9 µM
11 | O=C(Nc1ccc(Cl)cc1Cl)C1C(=O)N(c2ccc(Cl)cc2Cl)C(=O)/C1=N\Nc1ccc([N+](=O)[O-])cc1[N+](=O)[O-] (centres undefined) | > 100 µM | – | 97.7 µM | > 100 µM | > 100 µM | 87.6 µM | > 100 µM | – | – | – | – | – | – | – | – | – | –
12 | CC(NS(=O)(=O)c1ccc([N+](=O)[O-])cc1)C(=O)O (centres undefined) | > 100 µM | – | > 100 µM | > 100 µM | > 100 µM | > 100 µM | > 100 µM | – | – | – | – | – | – | – | – | – | –
13 | COC(=O)C1=C(c2ccc(OC)c(OC)c2)OC(c2ccc(OC)c(OC)c2)C1 (centres undefined) | > 100 µM | – | > 100 µM | – | 36.4 µM | > 100 µM | > 100 µM | > 100 µM | – | – | – | – | – | – | – | – | –
14 | COc1cc(/C=C/c2ccncc2)cc(OC)c1OC | > 100 µM | – | > 100 µM | > 100 µM | > 100 µM | > 100 µM | > 100 µM | – | – | – | – | – | – | – | – | – | –
15 | CC(C)(C)NNC(=O)/C(=C/c1ccc([N+](=O)[O-])cc1)NC(=O)c1ccccc1 | > 100 µM | – | > 100 µM | > 100 µM | 79.2 µM | > 100 µM | > 100 µM | 46.4 µM | – | – | – | – | – | – | – | – | –
16 | C/C(CN1C(=O)c2ccccc2C1=O)=N\NS(=O)(=O)c1ccc(C)cc1 | > 100 µM | – | > 100 µM | > 100 µM | > 100 µM | > 100 µM | > 100 µM | > 100 µM | – | – | – | – | – | – | – | – | –
17 | NCCNc1c2c(c(NCCN)c3c(CO)c[nH]c13)C(=O)c1ccccc1C2=O | > 100 µM | 38.9 µM | > 100 µM | – | > 100 µM | > 100 µM | 75.1 µM | – | 32 µM | 35.9 µM | 24.3 µM | – | 8.38 µM | 17.2 µM | 20.7 µM | 3.27 µM | 6.72 µM
18 | N=C(N)c1ccc(OCc2cccc(COc3ccc(C(=N)N)cc3)c2)cc1 | 49.3 µM | 12.5 µM | 31.2 µM | 27.2 µM | 40.3 µM | 27.9 µM | 21 µM | – | 9.37 µM | 17.8 µM | 11.3 µM | 11.4 µM | 15.1 µM | 8.59 µM | 7.61 µM | 4 µM | 3.41 µM
19 | C[N+](C)(C)CC1CCCC/C1=N\OC(=O)c1ccccc1 (centres undefined) | > 100 µM | – | > 100 µM | > 100 µM | > 100 µM | > 100 µM | > 100 µM | > 100 µM | – | – | – | – | – | – | – | – | –
20 | CN1C(=O)CC(c2cccc(C3CC(=O)N(C)C3=O)n2)C1=O (centres undefined) | > 100 µM | – | > 100 µM | > 100 µM | > 100 µM | > 100 µM | > 100 µM | > 100 µM | – | – | – | – | – | – | – | – | –
21 | O=C(Nc1c(O)[nH]c(=S)[nH]c1=O)c1ccccc1F | > 100 µM | – | > 100 µM | > 100 µM | > 100 µM | > 100 µM | > 100 µM | > 100 µM | – | – | – | – | – | – | – | – | –
22 | C[C@@H]1COCCN1c1cc(C2([S@](C)(=N)=O)CC2)nc(-c2ccnc3[nH]ccc23)n1 | > 100 µM | 29.6 µM and > 10 µM | 20.3 µM and > 10 µM | 75.9 µM and > 10 µM | 43.1 µM and > 10 µM | 34.3 µM and > 10 µM | > 59.7 µM | – | 27.7 µM and > 10 µM | 0.818 µM and 1.65 µM | 2.29 µM and 2.16 µM | 6.06 µM and 4.17 µM | 6.18 µM and > 10 µM | 1.74 µM and 1.7 µM | 3.69 µM and 1.68 µM | 2.93 µM and 3.72 µM | 1.83 µM and 2.92 µM
23 | NC1=NC(=O)/C(=C/c2ccccc2[N+](=O)[O-])C(N)=N1 | > 100 µM | – | > 100 µM | > 100 µM | > 100 µM | > 100 µM | > 100 µM | > 100 µM | – | – | – | – | – | – | – | – | –
24 | CC1CC[C@]2(C(=O)O)CCC3(COC(=O)/C=C\c4ccc(O)cc4)C(=CCC4[C@@]5(C)CC[C@H](O)C(C)(C)C5CC[C@]43C)[C@@H]2[C@H]1C (some centres undefined) | 22.5 µM | – | 80.9 µM | 48.3 µM | 50.9 µM | 28.5 µM | 44.7 µM | 76.1 µM | – | – | – | – | – | – | – | – | –
